Measurements from patent US9493448B2, “Cycloalkane derivatives” (Daiichi Sankyo Company, Limited, priority 2012, dated 2016).

Columns and labels:
hNav 1.7 = hNav 1.7 (Homo sapiens (Human), UniProt Q15858); test: Electrophysiological evaluation, automated patch clamp IonWorks Quattro (Population Patch Clamp mode); assay type: cell-based; conditions: HEK293A cells stably expressing hNav 1.7/β1/β2; response to second depolarization pulse, pre-pulse potential set to V1/2; read-out: hNav1.7 IC50
[1] = test system: mice and rats affected by thermal hyperalgesia; test: Thermal hyperalgesia assay; assay type: in vivo; conditions: oral administration, constant dose, against the vehicle treatment group; latency to escape behaviors after thermal stimulation of hind paw;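 further: measurement times set by the study director and not disclosed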
[2] = test system: painful diabetic neuropathy; conditions: cited from earlier work

hNav 1.7, sequence (Q15858 whole entry): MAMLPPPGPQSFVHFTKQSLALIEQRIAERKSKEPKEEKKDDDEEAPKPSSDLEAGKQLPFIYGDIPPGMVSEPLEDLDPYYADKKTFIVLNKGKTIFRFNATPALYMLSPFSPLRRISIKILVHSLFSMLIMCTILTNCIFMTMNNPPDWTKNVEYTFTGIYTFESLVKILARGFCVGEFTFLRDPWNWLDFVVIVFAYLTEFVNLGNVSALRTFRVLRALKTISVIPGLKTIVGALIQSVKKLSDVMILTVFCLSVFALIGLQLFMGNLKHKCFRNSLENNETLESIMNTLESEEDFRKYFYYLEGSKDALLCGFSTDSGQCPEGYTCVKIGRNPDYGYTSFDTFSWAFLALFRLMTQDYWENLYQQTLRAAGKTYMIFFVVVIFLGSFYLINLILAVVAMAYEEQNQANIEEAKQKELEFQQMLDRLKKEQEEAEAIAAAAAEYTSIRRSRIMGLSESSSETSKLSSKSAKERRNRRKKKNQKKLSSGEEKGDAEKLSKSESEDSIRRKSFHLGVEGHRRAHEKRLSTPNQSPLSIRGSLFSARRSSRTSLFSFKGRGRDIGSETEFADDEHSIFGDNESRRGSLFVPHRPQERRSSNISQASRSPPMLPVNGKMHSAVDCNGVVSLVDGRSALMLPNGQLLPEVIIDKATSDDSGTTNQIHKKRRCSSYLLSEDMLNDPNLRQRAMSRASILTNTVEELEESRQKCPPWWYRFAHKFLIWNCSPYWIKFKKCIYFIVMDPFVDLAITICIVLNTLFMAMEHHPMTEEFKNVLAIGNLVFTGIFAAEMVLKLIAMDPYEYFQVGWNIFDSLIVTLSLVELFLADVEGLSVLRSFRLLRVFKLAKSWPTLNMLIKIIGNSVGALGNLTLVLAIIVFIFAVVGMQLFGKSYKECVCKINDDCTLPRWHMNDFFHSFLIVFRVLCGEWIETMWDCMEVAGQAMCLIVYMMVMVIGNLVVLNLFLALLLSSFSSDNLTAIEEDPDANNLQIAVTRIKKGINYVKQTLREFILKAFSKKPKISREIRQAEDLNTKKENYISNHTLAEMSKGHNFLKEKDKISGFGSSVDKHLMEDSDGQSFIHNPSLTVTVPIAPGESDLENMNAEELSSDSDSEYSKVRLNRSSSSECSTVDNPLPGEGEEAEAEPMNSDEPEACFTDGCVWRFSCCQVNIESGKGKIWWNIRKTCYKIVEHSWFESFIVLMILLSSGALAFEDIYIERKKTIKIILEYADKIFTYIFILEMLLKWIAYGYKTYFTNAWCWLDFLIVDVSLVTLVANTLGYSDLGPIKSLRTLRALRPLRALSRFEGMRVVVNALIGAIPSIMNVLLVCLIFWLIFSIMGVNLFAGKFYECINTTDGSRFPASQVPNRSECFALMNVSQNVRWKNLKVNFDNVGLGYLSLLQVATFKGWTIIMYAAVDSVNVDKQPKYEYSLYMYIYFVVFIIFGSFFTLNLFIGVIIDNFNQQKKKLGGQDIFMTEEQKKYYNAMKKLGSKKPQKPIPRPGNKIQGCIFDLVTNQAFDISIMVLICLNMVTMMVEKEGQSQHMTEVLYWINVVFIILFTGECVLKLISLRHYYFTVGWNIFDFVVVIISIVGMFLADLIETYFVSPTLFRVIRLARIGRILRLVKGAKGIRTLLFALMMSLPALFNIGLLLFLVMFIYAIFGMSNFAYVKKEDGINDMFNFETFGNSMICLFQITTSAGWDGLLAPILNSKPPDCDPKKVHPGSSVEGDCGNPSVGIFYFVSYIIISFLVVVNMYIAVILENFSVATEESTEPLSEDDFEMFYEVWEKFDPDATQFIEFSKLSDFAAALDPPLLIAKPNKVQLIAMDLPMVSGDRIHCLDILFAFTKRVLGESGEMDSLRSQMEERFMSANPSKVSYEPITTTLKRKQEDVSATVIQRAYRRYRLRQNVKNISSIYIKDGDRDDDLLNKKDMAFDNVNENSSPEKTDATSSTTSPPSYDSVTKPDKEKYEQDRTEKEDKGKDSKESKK
hNav 1.7, sequence (Q07699 19-218 partner): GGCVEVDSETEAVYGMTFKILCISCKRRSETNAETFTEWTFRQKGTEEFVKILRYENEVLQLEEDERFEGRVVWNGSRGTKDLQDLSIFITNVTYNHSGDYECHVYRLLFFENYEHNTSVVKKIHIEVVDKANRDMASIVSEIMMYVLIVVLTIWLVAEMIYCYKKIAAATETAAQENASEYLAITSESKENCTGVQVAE
hNav 1.7, sequence (O60939 30-215 partner): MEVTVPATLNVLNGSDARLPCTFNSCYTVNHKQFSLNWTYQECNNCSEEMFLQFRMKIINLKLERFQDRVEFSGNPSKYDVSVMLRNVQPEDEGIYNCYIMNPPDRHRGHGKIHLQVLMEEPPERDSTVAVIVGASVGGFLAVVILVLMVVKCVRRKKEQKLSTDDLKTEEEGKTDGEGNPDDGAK

SMILES	IC50 (hNav 1.7)	Ratio of improving pain score (%) [1]	effective therapeutic ratio based on self-evaluation of patients [2]
Cn1nccc1[C@H]1CC(F)(F)C[C@@H]1Oc1cc(F)c(S(=O)(=O)Nc2ccncn2)cc1Cl (relative stereo) [Example 146, 5-Chloro-4-{[(1S*,2R*)-4,4-difluoro-2-(1-methyl-1H-pyrazol-5-yl)cyclopentyl]oxy}-2-fluoro-N-(pyrimidin-4-yl)benzenesulfonamide]	24 nM	C (“C” when the rate was 0 to 30%)	–
O=S(=O)(Nc1ccncn1)c1ccc(O[C@H]2CC(F)(F)CC[C@@H]2c2cn[nH]c2)cc1F (relative stereo) [Example 147, 4-{[(1S*,2R*)-5,5-Difluoro-2-(1H-pyrazol-4-yl)cyclohexyl]oxy}-2-fluoro-N-(pyrimidin-4-yl)benzenesulfonamide]	600 nM	C (“C” when the rate was 0 to 30%)	–
O=S(=O)(Nc1ccncn1)c1cc(Cl)c(O[C@H]2CC(F)(F)CC[C@@H]2c2cn[nH]c2)cc1F (relative stereo) [Example 152, 5-Chloro-4-{[(1S*,2R*)-5,5-difluoro-2-(1H-pyrazol-4-yl)cyclohexyl]oxy}-2-fluoro-N-(pyrimidin-4-yl)benzenesulfonamide]	17 nM	B (“B” when the rate was 31 to 60%)	–
CCn1nccc1[C@@H]1CCC[C@H]1Oc1ccc(S(=O)(=O)Nc2ccncn2)c(F)c1F [Example 118, 4-{[(1R,2S)-2-(1-Ethyl-1H-pyrazol-5-yl)cyclopentyl]oxy}-2,3-difluoro-N-(pyrimidin-4-yl)benzenesulfonamide]	21000 nM	A (“A” when the rate was 61 to 100%)	–
CCn1nccc1[C@H]1CCC[C@@H]1Oc1ccc(S(=O)(=O)Nc2ccncn2)c(F)c1F [Example 119, 4-{[(1S,2R)-2-(1-Ethyl-1H-pyrazol-5-yl)cyclopentyl]oxy}-2,3-difluoro-N-(pyrimidin-4-yl)benzenesulfonamide]	100 nM	A (“A” when the rate was 61 to 100%)	–
Cn1nccc1[C@@H]1CCC[C@H]1Oc1ccc(S(=O)(=O)Nc2ccncn2)c(F)c1 [Example 128, 2-Fluoro-4-{[(1R,2S)-2-(1-methyl-1H-pyrazol-5-yl)cyclopentyl]oxy}-N-(pyrimidin-4-yl)benzenesulfonamide]	92000 nM	B (“B” when the rate was 31 to 60%)	–
Cc1cc(S(=O)(=O)Nc2ccncn2)c(F)cc1O[C@H]1CC(F)(F)CC[C@@H]1c1ccnn1C [Example 137, 4-{[(1S,2R)-5,5-Difluoro-2-(1-methyl-1H-pyrazol-5-yl)cyclohexyl]oxy}-2-fluoro-5-methyl-N-(pyrimidin-4-yl)benzenesulfonamide]	30 nM	A (“A” when the rate was 61 to 100%)	–
Cc1cc(S(=O)(=O)Nc2ccncn2)c(F)cc1O[C@H]1CC(F)(F)CC[C@@H]1c1cn[nH]c1 [Example 143, 4-{[(1S,2R)-5,5-Difluoro-2-(1H-pyrazol-4-yl)cyclohexyl]oxy}-2-fluoro-5-methyl-N-(pyrimidin-4-yl)benzenesulfonamide]	21 nM	B (“B” when the rate was 31 to 60%)	–
Cc1cc(S(=O)(=O)Nc2ccncn2)c(F)cc1O[C@H]1CCC[C@@H]1c1ccn[nH]1 [Example 148, 2-Fluoro-5-methyl-4-{[(1S,2R)-2-(1H-pyrazol-5-yl)cyclopentyl]oxy}-N-(pyrimidin-4-yl)benzenesulfonamide]	18 nM	B (“B” when the rate was 31 to 60%)	–
O=S(=O)(Nc1ccncn1)c1cc(Cl)c(O[C@H]2CCC[C@@H]2c2ccn[nH]2)cc1F [Example 150, 5-Chloro-2-fluoro-4-{[(1S,2R)-2-(1H-pyrazol-5-yl)cyclopentyl]oxy}-N-(pyrimidin-4-yl)benzenesulfonamide]	21 nM	C (“C” when the rate was 0 to 30%)	–
O=S(=O)(Nc1ccncn1)c1cc(Cl)c(O[C@H]2CCCC[C@@H]2c2ccn[nH]2)cc1F [Example 158, 5-Chloro-2-fluoro-4-{[(1S,2R)-2-(1H-pyrazol-5-yl)cyclohexyl]oxy}-N-(pyrimidin-4-yl)benzenesulfonamide]	28 nM	C (“C” when the rate was 0 to 30%)	–
Cn1nccc1[C@H]1C[C@H](O)CC[C@@H]1Oc1cc(F)c(S(=O)(=O)Nc2ccncn2)cc1Cl [Example 165, 5-Chloro-2-fluoro-4-{[(1S,2R,4R)-4-hydroxy-2-(1-methyl-1H-pyrazol-5-yl)cyclohexyl]oxy}-N-(pyrimidin-4-yl)benzenesulfonamide]	40 nM	B (“B” when the rate was 31 to 60%)	–
O=S(=O)(Nc1ccncn1)c1c(F)cc(O[C@H]2CCCC[C@@H]2c2cn[nH]c2)cc1F [Example 171, 2,6-Difluoro-4-{[(1S,2R)-2-(1H-pyrazol-4-yl)cyclohexyl]oxy}-N-(pyrimidin-4-yl)benzenesulfonamide]	43 nM	B (“B” when the rate was 31 to 60%)	–
CC(C)C[C@H](CN)CC(=O)O [pregabalin]	–	–	approximately 50%
